Assay results taken from PMC5585294, “A potent series targeting the malarial cGMP-dependent protein kinase clears infection and blocks transmission” (Nature Communications, 2017).
Where two headings read alike, the source gives them in different places.

Legend:
[1] = target: PfPKG (Plasmodium falciparum, UniProt Q8I719); test: Microfluidic mobility shift kinase assay, recombinant PfPKG wild type; details: read-out: IC50 WT; recombinant full length 6His-tagged PfPKG; ATP at KM (20 µM); +/- s.e.m.
Experimental: (§3) Full length PfPKG (NCBI accession code XP_001348520) with native codon usage was cloned into the pTrcHisC plasmid (Life Technologies) that includes an N-terminal His-tag as described previously[8]. […] Recombinant proteins were generated and purified using a protocol based on that described previously[8]. […] 500 ml cultures in LB Rich Broth (containing 50 μg/ml carbenicillin and 34 μg/ml chloramphenicol) were grown in a shaking incubator at 37 °C until reaching an optical density (O.D.) of 0.6–0.7. The temperature was reduced to 16 °C before induction of expression with 1 mM IPTG. Incubation at 16 °C was continued overnight.
(§4) The cultures were harvested by centrifugation at 4000×g at 4 °C for 30 min, the supernatant removed and the pellet stored at −80 °C for in excess of 1 h. The PKGs were purified via the histidine tag on HiTrap TALON (cobalt) columns (GE Healthcare) connected to an AKTA-FPLC as per the manufacturer's instruction. Fractions were analyzed by SDS-PAGE and the main peak concentrated on 10 kDa MWCO concentrators (Amicon). Purified proteins were stored in 50% glycerol at −80 °C in single use aliquots. The final buffer composition of the purified product was: 50 mM Tris/HCl pH 7.5, 0.1 mM EGTA, 150 mM NaCl, 0.1% β-mercaptoethanol, 50% glycerol, 0.03% Brij-35, 1 mM benzamidine and 0.2 mM PMSF.
(§5) IC50 values were determined for test compounds using a microfluidic mobility shift assay. Briefly, compounds were prepared over a 10-well ½ log dilution series in dimethyl sulfoxide (DMSO) in duplicate in 50 μl volumes using 384-well polypropylene U-bottomed plates (Thermo Scientific, UK). The plates contained positive/no inhibitor (DMSO only) and negative (no enzyme) controls in columns 1, 2, and 23, 24. […] Samples were pre-incubated at room temperature for 30 min and reactions were initiated by addition of 25 μl ATP mix (10 mM MgCl2 and ATP, at KM of the enzyme under test [20 µM PfPKG and 90 µM PfPKG T618Q], in water). Positive controls were complete reaction mixtures with 10% DMSO and negative controls were reaction mixtures with 10% DMSO but lacking enzyme. Reactions were allowed to proceed for 30 mins at room temperature, corresponding to conversion of approximately 10% of the substrate in the DMSO controls. Reactions were terminated by addition of 50 µl stop solution (25 mM EDTA in water). Samples were analyzed by electrophoretic separation of substrate and product peaks and fluorescence detection using a Caliper Lab Chip EZ reader. (Perkin Elmer, Waltham MA) with 0.2 s sip time, downstream voltage 500 V, upstream voltage 1950 V and pressure 0.5 to 1.5 psi. Substrate and product peak heights were measured and the ratio of the product peak height divided by the sum of the product and substrate peaks were determined using EZ reader software (version 3.0.265.0) to obtain percentage conversion (P) values. […] Liquid handling stages were conducted on a Biomek robotic liquid handler (Beckman Coulter).

[2] = Stability in human liver microsomes
Experimental: (§1) Compound mlm hlm mLogD PAMPA HepG2 name (%rem) (%rem) (nm/s) (IC50 µM)
(§2) Supplementary Table 2. Compound Properties. MLM, HLM, mLogD and PAMPA . mlm (%rem): % of compound remaining after 30 minutes’ incubation with mouse liver microsomes; hlm (%rem): % of compound remaining after 40 minutes’ incubation with human liver microsomes; mLogD: measured LogD at pH 7.4; PAMPA: parallel artificial membrane permeability assay; HepG2: Cytotoxicity assay using HepG2 cells; n.t.: not tested.

[3] = target: PfPKG T618Q (Plasmodium falciparum, UniProt Q8I719, T618Q); test: Microfluidic mobility shift kinase assay, recombinant PfPKG T618Q gatekeeper mutant; details: read-out: IC50 T618Q; recombinant PfPKG T618Q; ATP at KM (90 µM); +/- s.e.m.
Experimental: as §3, §4, §5

[4] = test system: P. chabaudi (AS); test: Synchronous P. chabaudi AS model in BALB/c mice; format: in vivo, Plasmodium chabaudi; details: single daily oral dose 50 mg/kg just prior to schizogony, 4 days
Experimental: Similar experiments were performed using P. chabaudi AS (from David Walliker, University of Edinburgh) with the following modifications. To allow dosing to be carried out more conveniently during the day, reversal of the light/dark exposure of mice for 2 weeks prior to the experiment was used to switch schizogony from midnight to noon each day. Mice were dosed at different time points in an attempt to have maximal coverage at the point of schizogony. All animal work protocols carried out at LSHTM were approved and licensed by the United Kingdom Home Office as governed by law under the Animals (Scientific Procedures) Act of 1986, in strict accordance with the Code of Practice Part 1 for the housing and care of animals (21 March 2005), available at http://www.homeoffice.gov.uk/science-research/animal-research/

[5] = test system: HepG2 cells; test: Cytotoxicity assay using HepG2 cells
Experimental: as §1, §2

[6] = Stability in mouse liver microsomes
Experimental: as §1, §2

[7] = test system: P. falciparum 3D7; test: Hypoxanthine incorporation growth inhibition assay, asexual blood stage, wild-type 3D7; format: cell-based, Plasmodium falciparum; details: for EC50: read-out: EC50 WT
Experimental: Hypoxanthine incorporation assays[36] were performed on P. falciparum asexual blood stage parasites (wild-type 3D7 or T618Q gatekeeper mutant) to determine EC50 values for test compounds. Mixed staged parasites (primarily rings) were added to 96 well plates containing compounds at concentrations of 50 μM–0.3 nM. […] Assays were carried out in triplicate at least twice.

[8] = test system: P. falciparum (NF54) gametocytes; test: Standard membrane feeding assay (SMFA), gametocytes fed to Anopheles stephensi; format: cell-based, Plasmodium falciparum; details: gametocytes pre-incubated 24 h, oocysts counted day 7 post-feed; read-out: IC50 for reduction of the intensity of infection (oocysts)
Experimental: Mature P. falciparum (NF54) gametocytes (14 day culture, 0.3–0.5% gametocytes, 2% haematocrit) were obtained from an automated tipper system and incubated with compound for 24 h as previously described. Anopheles stephensi (Sind-Kasur Nijmegen strain[39] were reared at 30 °C and 70–80% humidity, while exposed to a 12/12 h day/night cycle. On the day of feeding, the gametocyte culture was adjusted to 50% hematocrit with human red blood cells and human serum and fed to 3–5 day old mosquitoes using a glass membrane mini-feeder system containing 0.35 ml of the P. falciparum culture/compound mix[40]. Unfed and partially fed mosquitoes were removed after feeding and blood fed females were maintained at 26 °C and 70–80% humidity. Up to 20 surviving mosquitoes were collected on day 7 post-infection and oocysts were visualized using a 1% merchurochrome solution and quantified by microscopy. IC50 values were determined by logistic regression using Maximum Likelihood Estimation to find best fit[41].

[9] = Plasma levels in satellite groups of mice, P. berghei experiment; format: in vivo, mouse; details: mice, oral 25 mg/kg, P. berghei experiment
From the text: Supplementary Figure 4. Plasma concentrations over time in rodent malaria models. […] Error bars show the standard deviation. (1 picture or pasted object on this page, not shown here)

[10] = physchem; details: pH 7.4
Experimental: as §1, §2

[11] = test system: P. falciparum T618Q gatekeeper mutant line; test: Hypoxanthine incorporation growth inhibition assay, asexual blood stage, T618Q gatekeeper mutant line; format: cell-based, Plasmodium falciparum; details: for EC50 / EC90: T618Q clonal line asexual blood stage growth, 72 h, +/- s.e.m.; for sensitivity of gatekeeper mutant line compared with wild type (control drugs): tested in parallel on both parasite lines
Experimental: We determined that a 72 h P. falciparum (clone 3D7A; obtained from Lisa Ranford Cartwright, University of Edinburgh) growth inhibition assay was necessary for full inhibition to manifest itself and that this is due, most likely to a schizont-specific action rather than a delayed death phenotype as observed for some antibiotic macrocycles. Hypoxanthine incorporation assays[36] were performed on P. falciparum asexual blood stage parasites (wild-type 3D7 or T618Q gatekeeper mutant) to determine EC50 values for test compounds. Mixed staged parasites (primarily rings) were added to 96 well plates containing compounds at concentrations of 50 μM–0.3 nM. [^3H]-Hypoxanthine was added after 48 h to a final concentration of 0.2 μCi. The radioactivity of the labeled hypoxanthine incorporated into the parasite nucleic acids over 24 h was determined relative to untreated controls using a Wallac 1450 Microbeta scintillation counter (Perkin-Elmer). Assays were carried out in triplicate at least twice.

[12] = Parallel artificial membrane permeability assay (PAMPA); format: in vitro ADME
From the text: Compound mlm hlm mLogD PAMPA HepG2
name (%rem) (%rem) (nm/s) (IC50 µM)
Supplementary Table 2. Compound Properties. MLM, HLM, mLogD and PAMPA . mlm

[13] = 3D7 asexual blood stage growth, 72 h, +/- s.e.m.
[14] = Plasmodium falciparum, 3D7, 72 h, 3D7 asexual blood stage growth, 72 h, +/- s.e.m.

PfPKG, sequence (Q8I719 whole entry): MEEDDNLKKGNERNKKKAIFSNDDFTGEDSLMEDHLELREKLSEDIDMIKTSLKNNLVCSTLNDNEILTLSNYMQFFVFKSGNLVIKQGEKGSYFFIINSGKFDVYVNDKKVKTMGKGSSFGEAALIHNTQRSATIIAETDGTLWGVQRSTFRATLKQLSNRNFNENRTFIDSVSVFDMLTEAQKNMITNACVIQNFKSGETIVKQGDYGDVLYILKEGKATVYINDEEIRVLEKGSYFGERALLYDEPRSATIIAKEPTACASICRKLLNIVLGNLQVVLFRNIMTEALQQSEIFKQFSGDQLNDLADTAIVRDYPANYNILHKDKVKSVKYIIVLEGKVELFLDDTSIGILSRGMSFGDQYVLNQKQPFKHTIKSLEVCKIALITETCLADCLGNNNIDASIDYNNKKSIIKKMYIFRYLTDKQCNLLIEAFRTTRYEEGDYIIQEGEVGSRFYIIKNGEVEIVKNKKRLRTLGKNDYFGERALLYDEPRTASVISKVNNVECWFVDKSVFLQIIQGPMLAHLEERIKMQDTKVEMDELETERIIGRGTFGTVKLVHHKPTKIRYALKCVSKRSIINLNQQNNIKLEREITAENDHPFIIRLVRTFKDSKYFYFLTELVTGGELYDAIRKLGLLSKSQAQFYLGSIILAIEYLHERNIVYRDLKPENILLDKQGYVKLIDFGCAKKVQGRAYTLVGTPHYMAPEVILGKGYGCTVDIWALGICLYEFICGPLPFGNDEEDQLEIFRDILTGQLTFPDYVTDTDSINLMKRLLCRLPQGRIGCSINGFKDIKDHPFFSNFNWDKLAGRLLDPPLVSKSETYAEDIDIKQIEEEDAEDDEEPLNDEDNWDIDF
PfPKG T618Q, sequence (Q8I719 whole entry T618Q): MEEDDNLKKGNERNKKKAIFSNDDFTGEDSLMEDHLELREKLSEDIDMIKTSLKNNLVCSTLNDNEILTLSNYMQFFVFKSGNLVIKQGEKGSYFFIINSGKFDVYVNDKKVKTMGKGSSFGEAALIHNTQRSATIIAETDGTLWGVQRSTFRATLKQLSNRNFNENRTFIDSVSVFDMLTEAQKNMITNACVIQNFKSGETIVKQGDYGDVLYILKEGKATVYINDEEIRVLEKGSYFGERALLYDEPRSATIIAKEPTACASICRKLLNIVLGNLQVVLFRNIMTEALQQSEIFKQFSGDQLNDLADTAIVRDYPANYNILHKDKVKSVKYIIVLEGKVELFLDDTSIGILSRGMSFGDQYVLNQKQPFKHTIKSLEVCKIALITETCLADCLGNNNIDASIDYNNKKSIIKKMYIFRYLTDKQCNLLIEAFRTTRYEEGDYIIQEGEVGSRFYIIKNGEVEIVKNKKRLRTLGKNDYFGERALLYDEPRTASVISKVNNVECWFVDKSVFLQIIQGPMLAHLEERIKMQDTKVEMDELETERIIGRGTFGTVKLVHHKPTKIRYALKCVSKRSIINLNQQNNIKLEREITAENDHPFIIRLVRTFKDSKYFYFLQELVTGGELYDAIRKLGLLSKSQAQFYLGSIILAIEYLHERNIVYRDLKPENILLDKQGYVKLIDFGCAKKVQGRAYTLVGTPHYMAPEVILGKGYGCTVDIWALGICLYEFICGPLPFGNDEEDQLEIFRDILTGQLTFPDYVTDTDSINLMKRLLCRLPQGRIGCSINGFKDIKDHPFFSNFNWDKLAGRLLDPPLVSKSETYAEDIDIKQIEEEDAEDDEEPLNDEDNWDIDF

SMILES | IC50 [1] | hlm (%rem) ([2]; human, microsomes, 40 min) | IC50 [3] | reduction in blood stage parasitaemia [4] | IC50 [5] | mlm (%rem) ([6]; mouse, microsomes, 0.5 h) | EC90 [7, 13] | EC50 [7, 13] | IC50 [8] | plasma half-life [9] | mLogD [10] | EC50 [11] | EC90 [11] | PAMPA [12] | EC50 ([7]; Plasmodium falciparum, 3D7, 72 h) | sensitivity of gatekeeper mutant line compared with wild type (control drugs) [11] | EC50 [7, 14] | hlm (%rem) ([2]; % of compound remaining after 40 minutes' incubation) | IC50 ([5]; read-out: HepG2 (IC50 M), cytotoxicity) | mlm (%rem) ([6]; % of compound remaining after 30 minutes' incubation)
Cc1cn2c(-c3ccnc(Nc4ccc(N5CCNCC5)cc4)n3)c(-c3ccc(F)cc3)nc2cc1CN(C)C [ML4] | 0.45 nM | 31% | 231 nM | 56.5% | 1900 nM | 84% | 107 nM | 25.3 nM | 61.6 nM | 1.0 h | 2.8 | 107 nM | 186 nM | 3.71 ×10⁻⁶ cm/s | – | – | – | – | – | –
CCN(CC)CCCC(C)Nc1ccnc2cc(Cl)ccc12 (centres unmarked) [Chloroquine, reference compound] | – | – | – | – | – | – | – | – | – | – | – | – | – | – | 16.2 ± 1.2 nM | equivalent levels of inhibition of both parasite lines | – | – | – | –
C[C@@H]1CC[C@H]2[C@@H](C)C(=O)O[C@@H]3O[C@@]4(C)CC[C@@H]1[C@]32OO4 [Artemisinin, reference compound] | – | – | – | – | – | – | – | – | – | – | – | – | – | – | – | equivalent levels of inhibition of both parasite lines | 25.2 ± 1.5 nM | – | – | –
CN(C)Cc1ccn2c(-c3ccnc(N)n3)c(-c3cccc(NS(C)(=O)=O)c3)nc2c1 [ML7] | 4.34 nM | 82% | > 100000 nM | – | > 20000 nM | 96% | 633 nM | 489 nM | – | – | 1.6 | 35100 nM | 60700 nM | 0.64 ×10⁻⁶ cm/s | – | – | – | – | – | –
CN(C)Cc1ccn2c(-c3ccnc(Nc4ccc(N5CCNCC5)cc4)n3)c(-c3ccc(F)cc3)nc2c1 [ML3] | 0.79 nM | – | 842 nM | – | – | – | 236 nM | 63.4 nM | – | – | 2.2 | 195 nM | 279 nM | 6.62 ×10⁻⁶ cm/s | – | – | – | 62% | 1900 nM | 89%
CCc1nc(N)nc(N)c1-c1ccc(Cl)cc1 [Pyrimethamine, reference compound] | – | – | – | – | – | – | – | – | – | – | – | – | – | – | – | resistant | 43.3 ± 5.9 nM | – | – | –
CN(C)Cc1ccn2c(-c3ccnc(NCC4CC4)n3)c(-c3cccc(S(C)(=O)=O)c3)nc2c1 [ML6] | 0.13 nM | 72% | 52500 nM | – | > 20000 nM | 62% | 142 nM | 102 nM | – | – | 2.3 | 1860 nM | 3490 nM | 11.45 ×10⁻⁶ cm/s | – | – | – | – | – | –
Fc1ccc(-c2nc3ccccn3c2-c2ccnc(Nc3ccc(N4CCNCC4)cc3)n2)cc1 [ML2] | 1.71 nM | 100% | 1710 nM | – | – | 100% | 628 nM | 197 nM | – | – | 3.1 | 140 nM | 956 nM | 0 ×10⁻⁶ cm/s | – | – | – | – | – | –
CN(C)Cc1ccn2c(-c3ccnc(N)n3)c(-c3ccc(F)c(NS(C)(=O)=O)c3)nc2c1 [ML8] | 0.79 nM | 91% | 73700 nM | – | > 20000 nM | 97% | 182 nM | 148 nM | – | – | 0.8 | 5570 nM | 31000 nM | 0.2 ×10⁻⁶ cm/s | – | – | – | – | – | –
Cc1cn2c(-c3ccnc(N)n3)c(-c3ccc(F)c(NS(C)(=O)=O)c3)nc2cc1CN(C)C [ML9] | 1.19 nM | 86% | > 100000 nM | – | – | 81% | 158 nM | 105 nM | – | – | 1.6 | 6900 nM | 48300 nM | 1.08 ×10⁻⁶ cm/s | – | – | – | – | – | –
CN(C)Cc1ccn2c(-c3ccnc(N)n3)c(-c3cccc(S(C)(=O)=O)c3)nc2c1 [ML5] | 0.88 nM | 96% | > 100000 nM | – | > 20000 nM | 96% | 445 nM | 329 nM | – | – | 1.5 | 12700 nM | 61500 nM | 1.77 ×10⁻⁶ cm/s | – | – | – | – | – | –
